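48-hour exposure; five concentrations; linearly interpolated endpoints. The concentration for 50% growth inhibition is given as GI50.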 Active and inactive are the calls of the source. No stated cut-off is given here; in the data, active = GI50 up to about 1.1 µM and inactive = higher.
Legend:
Experiment in all cases: NCI anticancer screen, dose series, 48 h
RPMI-8226 = tested on: RPMI-8226
SNB-75 = tested on: SNB-75
UACC-257 = tested on: UACC-257
IGROV-1 = tested on: IGROV-1
U-251 = tested on: U-251
T47D = tested on: T47D
K562 = tested on: K562
SF-539 = tested on: SF-539
SK-OV-3 = tested on: SK-OV-3
UO-31 = tested on: UO-31
OVCAR-5 = tested on: OVCAR-5
SK-MEL-28 = tested on: SK-MEL-28
MDA-N = tested on: MDA-N
A498 = tested on: A498
Malme-3M = tested on: Malme-3M
ACHN = tested on: ACHN
DU-145 = tested on: DU-145
SN12C = tested on: SN12C
HCT-15 = tested on: HCT-15
KM12 = tested on: KM12
HOP-92 = tested on: HOP-92
CAKI-1 = tested on: CAKI-1
SNB-19 = tested on: SNB-19
OVCAR-3 = tested on: OVCAR-3
UACC-62 = tested on: UACC-62
COLO 205 = tested on: COLO 205
HCT-116 = tested on: HCT-116
MOLT-4 = tested on: MOLT-4
OVCAR-4 = tested on: OVCAR-4
NCI-H460 = tested on: NCI-H460
MCF7 = tested on: MCF7
MDA-MB-435 = tested on: MDA-MB-435
SK-MEL-2 = tested on: SK-MEL-2
Hs-578T = tested on: Hs-578T
PC-3 = tested on: PC-3
BT-549 = tested on: BT-549
MDA-MB-231 = tested on: MDA-MB-231
NCI-H522 = tested on: NCI-H522
SK-MEL-5 = tested on: SK-MEL-5
NCI-H23 = tested on: NCI-H23
M14 = tested on: M14
786-0 = tested on: 786-0
A549 = tested on: A549
SW-620 = tested on: SW-620
HOP-62 = tested on: HOP-62
SR = tested on: SR
RXF 393 = tested on: RXF 393
CCRF-CEM = tested on: CCRF-CEM
SF-268 = tested on: SF-268
LOX IMVI = tested on: LOX IMVI
EKVX = tested on: EKVX
HL-60 = tested on: HL-60
SF-295 = tested on: SF-295
TK-10 = tested on: TK-10
HCC 2998 = tested on: HCC 2998

For `CCOP(=O)(CC1OC(CO)C(O)C1O)OCC` (stereo not given), the GI50 (RPMI-8226) was > 100 µM (inactive), the GI50 (SNB-75) was > 100 µM (inactive) and the GI50 (UACC-257) was > 100 µM (inactive). The GI50 (IGROV-1) was > 100 µM (inactive), the GI50 (U-251) was > 100 µM (inactive) and the GI50 (T47D) was > 100 µM (inactive). For the same molecule, the GI50 (K562) was > 100 µM (inactive), the GI50 (SF-539) was > 100 µM (inactive) and the GI50 (SK-OV-3) was > 100 µM (inactive). The GI50 (UO-31) was > 100 µM (inactive), the GI50 (OVCAR-5) was > 100 µM (inactive) and the GI50 (SK-MEL-28) was > 100 µM (inactive). The GI50 (MDA-N) was > 100 µM (inactive), the GI50 (A498) was > 100 µM (inactive) and the GI50 (Malme-3M) was > 100 µM (inactive). The GI50 (ACHN) was > 100 µM (inactive), the GI50 (DU-145) was > 100 µM (inactive) and the GI50 (SN12C) was > 100 µM (inactive). For the same molecule, the GI50 (HCT-15) was greater than 100 µM, the GI50 (KM12) was > 100 µM (inactive) and the GI50 (HOP-92) was > 100 µM (inactive). The GI50 (CAKI-1) was > 100 µM (inactive), the GI50 (SNB-19) was > 100 µM (inactive) and the GI50 (OVCAR-3) was > 100 µM (inactive). For the same molecule, the GI50 (UACC-62) was > 100 µM (inactive), the GI50 (COLO 205) was > 100 µM (inactive) and the GI50 (HCT-116) was > 100 µM (inactive). The GI50 (MOLT-4) was > 100 µM (inactive), the GI50 (OVCAR-4) was > 100 µM (inactive) and the GI50 (NCI-H460) was > 100 µM (inactive). The GI50 (MCF7) was > 100 µM (inactive), the GI50 (MDA-MB-435) was > 100 µM (inactive) and the GI50 (SK-MEL-2) was > 100 µM (inactive). For the same molecule, the GI50 (Hs-578T) was > 100 µM (inactive), the GI50 (PC-3) was > 100 µM (inactive) and the GI50 (BT-549) was > 100 µM (inactive). The GI50 (MDA-MB-231) was > 100 µM (inactive), the GI50 (NCI-H522) was > 100 µM (inactive) and the GI50 (SK-MEL-5) was > 100 µM (inactive). For the same molecule, the GI50 (NCI-H23) was > 46.7 µM (inactive), the GI50 (M14) was > 100 µM (inactive) and the GI50 (786-0) was > 100 µM (inactive). The GI50 (A549) was > 100 µM (inactive), the GI50 (SW-620) was > 100 µM (inactive) and the GI50 (HOP-62) was > 100 µM (inactive). The GI50 (SR) was > 100 µM (inactive), the GI50 (RXF 393) was > 100 µM (inactive) and the GI50 (CCRF-CEM) was > 100 µM (inactive). For the same molecule, the GI50 (SF-268) was > 100 µM (inactive), the GI50 (LOX IMVI) was > 100 µM (inactive) and the GI50 (EKVX) was > 100 µM (inactive). For the same molecule, the GI50 (HL-60) was > 100 µM (inactive), the GI50 (SF-295) was > 100 µM (inactive) and the GI50 (TK-10) was > 100 µM (inactive). The GI50 (HCC 2998) was > 100 µM (inactive).
